Reference: patent US4590271A, “2,4-diamino-5-(substituted)pyrimidines, useful as antimicrobials” (Burroughs Wellcome Co., priority 1982, dated 1986)
Values after ≈ are worked out from the molar mass of the structure shown.

Columns and labels:
Esch. coli CN314 = experiment: Minimum inhibitory concentration in vitro, Esch. coli CN314; type: cell-based; conditions: Escherichia coli, read-out: Minimum Inhibitory Concentrations
St. faecalis CN478 = experiment: Minimum inhibitory concentration in vitro, St. faecalis CN478; type: cell-based; conditions: Enterococcus faecalis, read-out: Minimum Inhibitory Concentrations
St. pyogenes CN10 = experiment: Minimum inhibitory concentration in vitro, St. pyogenes CN10; type: cell-based; conditions: Streptococcus pyogenes, read-out: Minimum Inhibitory Concentrations
B. fragilis = experiment: Minimum inhibitory concentration in vitro, B. fragilis; type: cell-based; conditions: Bacteroides fragilis, mean of 3 Strains, read-out: Minimum Inhibitory Concentrations
Staph. aureus CN491 = experiment: Minimum inhibitory concentration in vitro, Staph. aureus CN491; type: cell-based; conditions: Staphylococcus aureus, read-out: Minimum Inhibitory Concentrations
N. gonorrhoeae = experiment: Minimum inhibitory concentration in vitro, N. gonorrhoeae; type: cell-based; conditions: Neisseria gonorrhoeae, mean of 17 strains, read-out: Minimum Inhibitory Concentrations
St. agalactiae CN1143 = experiment: Minimum inhibitory concentration in vitro, St. agalactiae CN1143; type: cell-based; conditions: Streptococcus agalactiae, read-out: Minimum Inhibitory Concentrations
bacterial = conditions: amongst the 2,4-diamino-5-benzylpyrimidines known to date; cited from earlier work

Row | MIC (Esch. coli CN314) | MIC (St. faecalis CN478) | MIC (St. pyogenes CN10) | MIC (B. fragilis) | MIC (Staph. aureus CN491) | MIC (N. gonorrhoeae) | MIC (St. agalactiae CN1143) | SMILES | general antibacterial activity (bacterial)
1 | 0.5 µg/mL (≈ 1.59 µM) | 0.05 µg/mL (≈ 0.159 µM) | 0.05 µg/mL (≈ 0.159 µM) | 0.6 µg/mL (≈ 1.91 µM) | 0.05 µg/mL (≈ 0.159 µM) | 2.8 µg/mL (≈ 8.91 µM) | 0.05 µg/mL (≈ 0.159 µM) | COc1cc(Cc2cnc(N)nc2N)c2cc(C)oc2c1OC [Compound 3, 2,4-Diamino-5-(6,7-dimethoxy-2-methyl-4-benzofuranylmethyl)pyrimidine] | –
2 | 0.5 µg/mL (≈ 1.58 µM) | 0.05 µg/mL (≈ 0.158 µM) | 0.5 µg/mL (≈ 1.58 µM) | 6.2 µg/mL (≈ 19.6 µM) | 0.5 µg/mL (≈ 1.58 µM) | – | 0.5 µg/mL (≈ 1.58 µM) | COc1cc(Cc2cnc(N)nc2N)c2c(c1OC)OC(C)C2 (stereo not shown) [Compound 2, 2,4-Diamino-5-(2,3-dihydro-6,7-dimethoxy-2-methyl-4-benzofuranylmethyl)-pyrimidine] | –
3 | 0.5 µg/mL (≈ 1.52 µM) | 0.5 µg/mL (≈ 1.52 µM) | 5 µg/mL (≈ 15.2 µM) | 25 µg/mL (≈ 76.1 µM) | 0.5 µg/mL (≈ 1.52 µM) | 25 µg/mL (≈ 76.1 µM) | 5 µg/mL (≈ 15.2 µM) | COc1cc(Cc2cnc(N)nc2N)c2c(C)c(C)oc2c1OC [Compound 1, 2,4-Diamino-5-(6,7-dimethoxy-2,3-dimethyl-4-benzofuranylmethyl)pyrimidine] | –

Row | SMILES | MIC (Esch. coli CN314) | MIC (St. faecalis CN478) | MIC (St. pyogenes CN10) | MIC (B. fragilis) | MIC (Staph. aureus CN491) | MIC (N. gonorrhoeae) | MIC (St. agalactiae CN1143) | general antibacterial activity (bacterial)
4 | COc1cc(Cc2cnc(N)nc2N)cc(OC)c1OC [TMP, 2,4-Diamino-5-(3,4,5-trimethoxybenzyl)pyrimidine, reference compound] | 0.05 µg/mL (≈ 0.172 µM) | 0.1 µg/mL (≈ 0.344 µM) | 0.5 µg/mL (≈ 1.72 µM) | 3.1 µg/mL (≈ 10.7 µM) | 0.5 µg/mL (≈ 1.72 µM) | 40 µg/mL (≈ 138 µM) | 0.5 µg/mL (≈ 1.72 µM) | most active general antibacterial agent
